Data published in patent publication US11591355B2 (Peloton Therapeutics, Inc., priority 2017, dated 2023).

Assays:
[1] = biological target: T1, Human CD73 (Homo sapiens, UniProt P21589); assay: CD73 Enzyme Assay; type: biochemical; details: 0.25 nM hCD73, 25 μM AMP, kinetic read at 360 nm; read-out: CD73 Enzyme Assay IC50
T1 construct: purchased R&D Systems; host or cells: CHO cells
T1 sequence (P21589 27-549): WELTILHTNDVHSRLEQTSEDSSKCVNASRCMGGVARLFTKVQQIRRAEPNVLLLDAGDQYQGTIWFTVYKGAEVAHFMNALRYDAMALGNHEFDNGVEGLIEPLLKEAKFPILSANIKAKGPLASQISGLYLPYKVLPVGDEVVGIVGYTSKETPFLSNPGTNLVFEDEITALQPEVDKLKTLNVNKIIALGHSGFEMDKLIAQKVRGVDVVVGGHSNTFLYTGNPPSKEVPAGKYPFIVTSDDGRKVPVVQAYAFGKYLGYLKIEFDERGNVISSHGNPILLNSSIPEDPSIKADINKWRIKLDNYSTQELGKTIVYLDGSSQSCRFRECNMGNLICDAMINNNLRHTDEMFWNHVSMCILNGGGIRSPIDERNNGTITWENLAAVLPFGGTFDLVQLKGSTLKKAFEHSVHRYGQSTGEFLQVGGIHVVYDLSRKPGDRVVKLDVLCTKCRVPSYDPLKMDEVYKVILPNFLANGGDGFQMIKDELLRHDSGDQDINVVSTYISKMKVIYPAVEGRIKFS

[2] = biological target: T2, CD73 on U138 human neuroglioma cells (Homo sapiens, UniProt P21589); assay: CD73 Cell-Based Assay; details: U138 cells, AMP substrate, 2 hours at 37° C., inorganic phosphate by malachite green
T2 construct: U138 cells were obtained from ATCC and cultured in DMEM with 10% FBS; host or cells: U138 human neuroglioma cells
T2 sequence (P21589 27-549): T1 sequence (P21589 27-549)
In short: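 Whole U138 cells washed free of phosphate were incubated with 200 μM AMP (mixture concentration before equal-volume addition) plus compound in HEPES-buffered saline, pH 7.4, for 2 h at 37 °C, 5% CO2. Adenosine-forming activity read as inorganic phosphate released into supernatant by malachite green.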

SMILES | IC50 [1] [nM] | IC50 [2] [nM]
O=P(O)(O)COC[C@H]1O[C@@H](n2ccc3c(NC4CCCCC4)nc(Cl)nc32)[C@H](O)[C@@H]1O [Compound 111, [(2R,3S,4R,5R)-5-[2-chloro-4-(cyclohexyl-amino)pyrrolo[2,3-d]-pyrimidin-7-yl]-3,4-dihydroxy-tetrahydro-furan-2-yl]methoxy-methylphosphonic acid] | < 10 | < 10
O=P(O)(O)COC[C@H]1O[C@@H](n2ccc3c(N4CCC4)nc(Cl)nc32)[C@H](O)[C@@H]1O [Compound 112, [(2R,3S,4R,5R)-5-[4-(azetidin-1-yl)-2-chloro-pyrrolo[2,3-d]-pyrimidin-7-yl]-3,4-dihydroxy-tetrahydro-furan-2-yl]methoxy-methylphosphonic acid] | 10 to 100 | 10 to 100
C[C@H](c1ccccc1)N(C)c1nc(C#N)nc2c1ncn2[C@@H]1O[C@H](COCP(=O)(O)O)[C@@H](O)[C@H]1O [Compound 113] | 10 to 100 | 10 to 100
C[C@@H](Nc1nc(Cl)nc2c1ccn2[C@@H]1O[C@H](COCP(=O)(O)O)[C@@H](O)[C@H]1O)c1ccc(C(F)(F)F)cc1 [Compound 114, [(2R,3S,4R,5R)-5-[2-chloro-4-[[(1R)-1-[4-(trifluoromethyl)-phenyl]ethyl]amino]-pyrrolo[2,3-d]-pyrimidin-7-yl]-3,4-dihydroxy-tetrahydro-furan-2-yl]methoxy-methylphosphonic acid] | 10 to 100 | < 10
C[C@@H](Nc1nc(C#N)nc2c1ccn2[C@@H]1O[C@H](COCP(=O)(O)O)[C@@H](O)[C@H]1O)c1ccc(C(F)(F)F)cc1 [Compound 115, [(2R,3S,4R,5R)-5-[2-cyano-4-[[(1R)-1-[4-(trifluoromethyl)-phenyl]ethyl]amino]-pyrrolo[2,3-d]-pyrimidin-7-yl]-3,4-dihydroxy-tetrahydro-furan-2-yl]methoxy-methylphosphonic acid] | < 10 | 10 to 100
C[C@H](Nc1nc(Cl)nc2c1ccn2[C@@H]1O[C@H](COCP(=O)(O)O)[C@@H](O)[C@H]1O)c1ccc(F)cc1F [Compound 116, [(2R,3S,4R,5R)-5-[2-chloro-4-[[(1S)-1-(2,4-difluorophenyl)-ethyl]amino]pyrrolo-[2,3-d]pyrimidin-7-yl]-3,4-dihydroxy-tetrahydrofuran-2-yl]methoxymethyl-phosphonic acid] | < 10 | < 10
C[C@H](Nc1nc(Cl)nc2c1ccn2[C@@H]1O[C@H](COCP(=O)(O)O)[C@@H](O)[C@H]1O)c1ccc(C#N)cc1 [Compound 117, [(2R,3S,4R,5R)-5-[2-chloro-4-[[(1S)-1-(4-cyanophenyl)ethyl]-amino]pyrrolo[2,3-d]-pyrimidin-7-yl]-3,4-dihydroxy-tetrahydro-furan-2-yl]methoxy-methylphosphonic acid] | 10 to 100 | < 10
N#Cc1nc(NC2CCCCC2)c2ccn([C@@H]3O[C@H](COCP(=O)(O)O)[C@@H](O)[C@H]3O)c2n1 [Compound 119, [(2R,3S,4R,5R)-5-[2-cyano-4-(cyclohexyl-amino)pyrrolo[2,3-d]-pyrimidin-7-yl]-3,4-dihydroxy-tetrahydro-furan-2-yl]methoxy-methylphosphonic acid] | < 10 | < 10
N#Cc1nc(NC2CCOCC2)c2ccn([C@@H]3O[C@H](COCP(=O)(O)O)[C@@H](O)[C@H]3O)c2n1 [Compound 120, [(2R,3S,4R,5R)-5-[2-cyano-4-(tetrahydro-pyran-4-ylamino)-pyrrolo[2,3-d]-pyrimidin-7-yl]-3,4-dihydroxy-tetrahydro-furan-2-yl]methoxy-methylphosphonic acid] | 100 to 1000 | 10 to 100
O=P(O)(O)COC[C@H]1O[C@@H](n2ccc3c(NC4CCC(F)(F)CC4)nc(Cl)nc32)[C@H](O)[C@@H]1O [Compound 121, [(2R,3S,4R,5R)-5-[2-chloro-4-[(4,4-difluorocyclohexyl)-amino]pyrrolo[2,3-d]-pyrimidin-7-yl]-3,4-dihydroxy-tetrahydro-furan-2-yl]methoxy-methylphosphonic acid] | 10 to 100 | < 10
N#Cc1nc(N2CCC2)c2ccn([C@@H]3O[C@H](COCP(=O)(O)O)[C@@H](O)[C@H]3O)c2n1 [Compound 122, [(2R,3S,4R,5R)-5-[4-(azetidin-1-yl)-2-cyano-pyrrolo[2,3-d]-pyrimidin-7-yl]-3,4-dihydroxy-tetrahydro-furan-2-yl]methoxy-methylphosphonic acid] | 10 to 100 | 10 to 100
O=P(O)(O)COC[C@H]1O[C@@H](n2ccc3c(N4CCC(F)(F)C4)nc(Cl)nc32)[C@H](O)[C@@H]1O [Compound 123, [(2R,3S,4R,5R)-5-[2-chloro-4-(3,3-difluoro-pyrrolidin-1-yl)pyrrolo-[2,3-d]pyrimidin-7-yl]-3,4-dihydroxy-tetrahydrofuran-2-yl]-methoxymethylphos-phonic acid] | < 10 | < 10
C[C@H](c1ccccc1)N(C)c1nc(Cl)nc2c1ccn2[C@@H]1O[C@H](COCP(=O)(O)O)[C@@H](O)[C@H]1O [Compound 124, [(2R,3S,4R,5R)-5-[2-chloro-4-[methyl-[(1R)-1-phenylethyl]-amino]pyrrolo[2,3-d]-pyrimidin-7-yl]-3,4-dihydroxy-tetrahydro-furan-2-yl]methoxy-methylphosphonic acid] | < 10 | < 10
N#Cc1nc(N2CCC(F)(F)C2)c2ccn([C@@H]3O[C@H](COCP(=O)(O)O)[C@@H](O)[C@H]3O)c2n1 [Compound 125, [(2R,3S,4R,5R)-5-[2-cyano-4-(3,3-difluoropyrrolidin-1-yl)-pyrrolo[2,3-d]-pyrimidin-7-yl]-3,4-dihydroxy-tetrahydro-furan-2-yl]methoxy-methylphosphonic acid] | < 10 | < 10
O=P(O)(O)COC[C@H]1O[C@@H](n2ccc3c(N4CCCCC4)nc(Cl)nc32)[C@H](O)[C@@H]1O [Compound 126, [(2R,3S,4R,5R)-5-[2-chloro-4-(1-piperidyl)-pyrrolo[2,3-d]-pyrimidin-7-yl]-3,4-dihydroxy-tetrahydro-furan-2-yl]methoxy-methylphosphonic acid] | 10 to 100 | < 10
N#Cc1nc(N2CCOCC2)c2ccn([C@@H]3O[C@H](COCP(=O)(O)O)[C@@H](O)[C@H]3O)c2n1 [Compound 127, [(2R,3S,4R,5R)-5-(2-cyano-4-morpholino-pyrrolo[2,3-d]-pyrimidin-7-yl)-3,4-dihydroxy-tetrahydro-furan-2-yl]methoxy-methylphosphonic acid] | 10 to 100 | 10 to 100
O=P(O)(O)COC[C@H]1O[C@@H](n2ccc3c(N4CCC(F)(F)CC4)nc(Cl)nc32)[C@H](O)[C@@H]1O [Compound 128, [(2R,3S,4R,5R)-5-[2-chloro-4-(4,4-difluoro-1-piperidyl)pyrrolo-[2,3-d]pyrimidin-7-yl]-3,4-dihydroxy-tetrahydrofuran-2-yl]-methoxymethylphos-phonic acid] | 10 to 100 | 10 to 100
N#Cc1nc(N2CCC(F)(F)CC2)c2ccn([C@@H]3O[C@H](COCP(=O)(O)O)[C@@H](O)[C@H]3O)c2n1 [Compound 129, [(2R,3S,4R,5R)-5-[2-cyano-4-(4,4-difluoro-1-piperidyl)pyrrolo-[2,3-d]pyrimidin-7-yl]-3,4-dihydroxy-tetrahydrofuran-2-yl]-methoxymethylphos-phonic acid] | 10 to 100 | 10 to 100
C[C@@H](Nc1nc(Cl)nc2c1c(F)cn2[C@@H]1O[C@H](COCP(=O)(O)O)[C@@H](O)[C@H]1O)c1ccccc1 [Compound 130, [(2R,3S,4R,5R)-5-[2-chloro-5-fluoro-4-[[(1R)-1-phenylethyl]-amino]pyrrolo[2,3-d]-pyrimidin-7-yl]-3,4-dihydroxy-tetrahydro-furan-2-yl]methoxy-methylphosphonic acid] | 10 to 100 | 10 to 100
C[C@@H](c1ccccc1)N(C)c1nc(Cl)nc2c1ccn2[C@@H]1O[C@H](COCP(=O)(O)O)[C@@H](O)[C@H]1O [Compound 131, [(2R,3S,4R,5R)-5-[2-chloro-4-[methyl-[(1S)-1-phenylethyl]-amino]pyrrolo[2,3-d]-pyrimidin-7-yl]-3,4-dihydroxy-tetrahydro-furan-2-yl]methoxy-methylphosphonic acid] | < 10 | < 10
C[C@H](c1ccccc1)N(C)c1nc(Cl)nc2c1ccn2[C@@H]1O[C@H](COCP(=O)(O)OCOC(=O)C(C)(C)C)[C@@H](O)[C@H]1O [Compound 132, ((((((2R,3S,4R,5R)-5-(2-chloro-4-(methyl((R)-1-phenylethyl)amino)-7H-pyrrolo[2,3-d]pyrimidin-7-yl)-3,4-dihydroxytetrahydrofuran-2-yl)methoxy)methyl)(hydroxy)phosphoryl)oxy)methyl pivalate] | < 10 | 10 to 100
